Among the test systems are OVCAR-4 ovarian; A498 renal; DU-145 prostate; LOX IMVI melanoma; SW-620 colon; K-562 leukemia; HS 578T breast; SK-MEL-28 melanoma.
Assay in all cases: growth of human tumour cells (NCI), 48 h

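Interpolation was linear, between the two tested concentrations surrounding the appropriate level; five concentrations were tested over 48 hours in 96-well plates. GI50 = concentration required for 50% inhibition of growth. TGI: concentration producing complete growth inhibition.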

Take `O=C(CCN1CCOCC1)Nc1ccc(Cn2nnc3c2C(=O)c2nnn(Cc4ccc(NC(=O)CCN5CCOCC5)cc4)c2C3=O)cc1`: the GI50 was 1.36 µM with OVCAR-4 ovarian; greater than 100 µM in the assay on A498 renal; 18.6 µM in the assay with DU-145 prostate; 0.678 µM with LOX IMVI melanoma; 2.58 µM in the assay with SW-620 colon; 1.81 µM in the assay with K-562 leukemia. For the same compound, the GI50 in the assay on HS 578T breast was 3.03 µM. The TGI in the assay with OVCAR-4 ovarian was 3.44 µM; in the assay on A498 renal it was greater than 100 µM; in the assay with DU-145 prostate, greater than 52.4 µM; with LOX IMVI melanoma, 3.37 µM; with SW-620 colon, greater than 100 µM; in the assay with K-562 leukemia it was greater than 100 µM. This compound returned a TGI in the assay with HS 578T breast of 24.9 µM.
Regarding `O=C(NO)c1ccc(CNc2cccc3nc(C4CC4)n(-c4ccccc4)c(=O)c23)cc1`, the GI50 in the assay with OVCAR-4 ovarian is 2.28 µM; in the assay with A498 renal, 1.87 µM; in the assay with SK-MEL-28 melanoma, 2.01 µM; with DU-145 prostate, 2.52 µM; in the assay with SW-620 colon, 1.81 µM; in the assay with K-562 leukemia, 2.89 µM. In addition, the GI50 with HS 578T breast was 2.5 µM. The TGI in the assay with OVCAR-4 ovarian is 21.9 µM; in the assay with A498 renal, 4.03 µM; in the assay with SK-MEL-28 melanoma it was 4.26 µM; with DU-145 prostate it was 13.7 µM; with SW-620 colon, 6.01 µM; with K-562 leukemia, greater than 100 µM. The TGI in the assay with HS 578T breast came out at 20.6 µM.
For `FC(F)(F)c1cccc(CNC2CCN(CCc3ccccc3)CC2)c1`, the GI50 with OVCAR-4 ovarian was 23.1 µM; with SK-MEL-28 melanoma, 16 µM; in the assay with DU-145 prostate it was 46.3 µM; in the assay on LOX IMVI melanoma it was 15.5 µM; in the assay with SW-620 colon, 36.9 µM; in the assay on K-562 leukemia it was 15.5 µM. In the assay on HS 578T breast, the GI50 is 17.7 µM. Further, the TGI was greater than 100 µM with OVCAR-4 ovarian; 31.7 µM with SK-MEL-28 melanoma; greater than 100 µM with DU-145 prostate; 29.1 µM in the assay on LOX IMVI melanoma; greater than 100 µM with SW-620 colon; 42.9 µM with K-562 leukemia. For the same compound, in the assay with HS 578T breast, the TGI turned out to be 57.5 µM.
`O=C1Nc2ccc(Cl)cc2/C1=N/c1nc(-c2ccc(Cl)cc2)cs1`: the GI50 in the assay on OVCAR-4 ovarian was 1.39 µM; with A498 renal, 1.8 µM; in the assay with DU-145 prostate, 1.42 µM; in the assay on SW-620 colon, 1.67 µM; in the assay on K-562 leukemia, 1.6 µM. The TGI was greater than 100 µM in the assay with OVCAR-4 ovarian; 4.98 µM in the assay on A498 renal; 2.79 µM in the assay on DU-145 prostate; 4.29 µM with SW-620 colon; greater than 100 µM in the assay with K-562 leukemia.
Consider `c1cc(OCCCCCOc2cccc(-c3nc4ccccc4[nH]3)c2)cc(-c2nc3ccccc3[nH]2)c1`, for which the GI50 was 2.03 µM in the assay with OVCAR-4 ovarian; 2.61 µM in the assay with A498 renal; 2.82 µM with SK-MEL-28 melanoma; 3.27 µM in the assay on DU-145 prostate; 2.19 µM in the assay with LOX IMVI melanoma; 2.87 µM in the assay with SW-620 colon. Besides, in the assay on HS 578T breast, the GI50 is 2.56 µM. The TGI is greater than 100 µM with OVCAR-4 ovarian; 7.91 µM in the assay with A498 renal; greater than 100 µM with SK-MEL-28 melanoma; greater than 100 µM in the assay on DU-145 prostate; 6.84 µM with LOX IMVI melanoma; greater than 100 µM with SW-620 colon. In the assay with HS 578T breast, this compound returned a TGI of 8.51 µM.
`COc1cc2c(cc1C)NC(=O)/C2=C\c1ccc(Oc2ccccc2)cc1`: the GI50 in the assay on OVCAR-4 ovarian is 16.4 µM; with A498 renal, 13.9 µM; in the assay on SK-MEL-28 melanoma, 15.7 µM; in the assay on DU-145 prostate it was 13.2 µM; with LOX IMVI melanoma, 14 µM; in the assay on SW-620 colon, 16.1 µM. In the assay on HS 578T breast, the GI50 is 20.7 µM. Further, the TGI in the assay with OVCAR-4 ovarian was 29.9 µM; in the assay on A498 renal it was 26.8 µM; in the assay with SK-MEL-28 melanoma, 29.5 µM; in the assay on DU-145 prostate, 26 µM; in the assay on LOX IMVI melanoma, 27 µM; in the assay with SW-620 colon, 32.5 µM. The TGI in the assay on HS 578T breast was 46.9 µM.
`N#C[Se]CCN1C(=O)c2ccccc2C1=O`: the GI50 is 4.17 µM with OVCAR-4 ovarian; 1.8 µM with SK-MEL-28 melanoma; 2.58 µM in the assay on DU-145 prostate; 1.8 µM with LOX IMVI melanoma; 2.38 µM in the assay on SW-620 colon; 2.35 µM in the assay on K-562 leukemia. For the same compound, in the assay with HS 578T breast, the GI50 is 1.43 µM. Further, the TGI in the assay with OVCAR-4 ovarian came to 23.9 µM; in the assay with SK-MEL-28 melanoma, 4.99 µM; in the assay on DU-145 prostate, 7.77 µM; in the assay on LOX IMVI melanoma, 4.15 µM; in the assay on SW-620 colon, 5.66 µM; with K-562 leukemia, 15.5 µM. The TGI in the assay with HS 578T breast is 6.09 µM.
Consider `CN(C)c1ccc(/C=c2/sc3nc(=O)c(-c4ccccc4NC(=O)C(F)(F)F)nn3c2=O)cc1`, for which the TGI with OVCAR-4 ovarian, with SK-MEL-28 melanoma, in the assay on LOX IMVI melanoma, with SW-620 colon and in the assay on K-562 leukemia was greater than 100 µM each time.
As to `COc1cc2c(Oc3ccc(-c4cnc(Nc5ccc(F)cc5)n(C)c4=O)cc3F)ccnc2cc1OCCCN1CCOCC1`, the GI50 was 1.74 µM in the assay on OVCAR-4 ovarian; 0.95 µM in the assay on A498 renal; 0.97 µM with SK-MEL-28 melanoma; 1.56 µM in the assay with DU-145 prostate; 1.23 µM with LOX IMVI melanoma; 0.933 µM with HS 578T breast. The TGI in the assay with OVCAR-4 ovarian is 7.49 µM; with A498 renal it was 2.46 µM; with SK-MEL-28 melanoma, 2.28 µM; in the assay on DU-145 prostate it was 3.17 µM; in the assay with LOX IMVI melanoma, 2.55 µM; with HS 578T breast, 3.4 µM.
Regarding `O=S(=O)(Nc1ccccc1)c1ccc(C2CC3(Cl)C(Cl)=C(Cl)C2(Cl)C3(Cl)Cl)cc1` (stereo not drawn), the GI50 in the assay with OVCAR-4 ovarian is 3.37 µM; in the assay on A498 renal it was 2.32 µM; with DU-145 prostate, 3.58 µM; with LOX IMVI melanoma, 1.84 µM; in the assay with K-562 leukemia, 2.51 µM. The TGI in the assay on OVCAR-4 ovarian stood at 11.1 µM; in the assay with A498 renal it was 6.29 µM; with DU-145 prostate it was 10.1 µM; with LOX IMVI melanoma it was 3.47 µM; with K-562 leukemia it was 9.84 µM.
For the compound `CCCCCCCCCCN=C(N)c1ccc(N2CCN(c3ccc(C(N)=NCCCCCCCCCC)cc3)CC2)cc1`, the GI50 with OVCAR-4 ovarian is 6.5 µM; in the assay with SK-MEL-28 melanoma, 4.76 µM; with DU-145 prostate, 3.3 µM; in the assay with LOX IMVI melanoma, 3.5 µM; with SW-620 colon, 2.65 µM; in the assay on K-562 leukemia, 1.95 µM. The TGI is greater than 50 µM in the assay with OVCAR-4 ovarian; 36 µM in the assay on SK-MEL-28 melanoma; 26.1 µM in the assay on DU-145 prostate; greater than 50 µM in the assay with LOX IMVI melanoma; greater than 50 µM with SW-620 colon; greater than 50 µM with K-562 leukemia.
